Results taken from PMC9234962, “Optimization of Peptide Linker-Based Fluorescent Ligands for the Histamine H1 Receptor” (Journal of Medicinal Chemistry, 2022).
Read-outs that look alike come from different tables or passages of the source. Square brackets hold non-standard residues; d marks the D form. Side chains are listed from the residue outwards. Peptide text beside a SMILES is read from it. * marks the point of attachment. X1 = O=C(COc1ccc(/C=C/C2=[N+]3C(=Cc4ccc(-c5cccs5)n4[B-]3(F)F)C=C2)cc1)*; Propanoyl(3-Pip(4-O-2-BnPh)) = O=C(CCN1CCC(Oc2ccccc2Cc2ccccc2)CC1)*; X3 = Cc1cc(C)n2c1C=C1C=CC(/C=C/c3ccc(OCC(=O)*)cc3)=[N+]1[B-]2(F)F; BODIPY(FL) = CC1=CC(C)=[N+]2C1=Cc1ccc(CCC(=O)*)n1[B-]2(F)F; X2 = O=C(CCC1=[N+]2C(=Cc3ccc(-c4cccs4)n3[B-]2(F)F)C=C1)*; Ahx = NCCCCCC(=O)O; βAla = NCCC(=O)O

Assays:
Nluc-H1R = Nluc-H1R (Homo sapiens, UniProt P35367); assay: NanoBRET saturation binding assay on Nluc-H1R expressing HEK293T cells; design: expressed in transfected cells; conditions: saturation binding curves, whole HEK293T cells; for pKD: non-specific with 10 μM mepyramine, mean ± SEM
Chain of Nluc-H1R (P35367 whole entry): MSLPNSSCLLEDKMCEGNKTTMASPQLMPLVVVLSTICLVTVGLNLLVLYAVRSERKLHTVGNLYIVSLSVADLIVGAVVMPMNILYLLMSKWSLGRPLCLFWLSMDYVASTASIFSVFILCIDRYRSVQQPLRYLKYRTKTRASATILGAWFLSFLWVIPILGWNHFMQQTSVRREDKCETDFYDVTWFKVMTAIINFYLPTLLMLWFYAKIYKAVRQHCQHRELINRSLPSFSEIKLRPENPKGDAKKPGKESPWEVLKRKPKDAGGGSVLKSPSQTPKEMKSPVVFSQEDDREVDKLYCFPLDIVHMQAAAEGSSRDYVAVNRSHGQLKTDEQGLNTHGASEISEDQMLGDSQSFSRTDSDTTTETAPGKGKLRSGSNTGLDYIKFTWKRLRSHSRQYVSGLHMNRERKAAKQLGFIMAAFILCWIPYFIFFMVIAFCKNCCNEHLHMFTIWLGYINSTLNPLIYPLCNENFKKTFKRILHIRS
From the text: Total and non-specific saturation binding curves from NanoBRET saturation binding assay were fitted simultaneously using eq 1: [drawing 4] 1 where Bmax is the maximal specific binding, [B] is the concentration of fluorescent ligand in nM, KD is the equilibrium dissociation constant in nM, M is the slope of the non-specific component, and C is the intercept with the Y axis.

human H1R = target: T1, human H1R (Homo sapiens, UniProt P35367); assay: Ca2+ mobilization assay on human H1R-expressing CHO cells; assay type: cell-based; conditions: Gaddum equation, shift in histamine EC25 with 1 μM antagonist
T1 construct: expressed in transfected cells; host or cells: CHO cells
T1 sequence (P35367 whole entry): as above
Description: CHO cells expressing H1R were grown to confluence in black-walled, clear-bottom 96-well plates. On the day of the experiment, media were replaced with 100 μL of HBSS containing […], 2.3 μM Fluo-4AM (Invitrogen), 0.023% Pluronic F-127, 0.5 mM Brilliant Black BN, and 1 μM required fluorescent ligand and the plates incubated for 1 h at 37 °C in the dark. The plates were then placed in the multi-well fluorometric imaging plate reader FlexStation3 (Molecular Devices, Sunnyvale, CA) and HBSS only or HBSS containing the required concentration of histamine was added after 15 s. Fluo-4 fluorescence was measured at 520 nm (excitation at 485 nm) every 1.52 s for 200 s. For each well, the peak maximum–minimum–maximum change in fluorescence value was taken and plotted against concentration of histamine to give a dose–response curve.
Estimated affinity values (pKB) were calculated from the shift in agonist concentration–response curves in the presence of the fluorescent antagonists using the Gaddum equation (7): [drawing 10] 7 where DR (dose ratio) is the ratio of the agonist concentration required to stimulate an identical response in the presence and absence of antagonist, [B]. DR was determined from the EC25 value as there was a decrease in observed maximal efficacy of histamine in the presence of all 10 fluorescent antagonists.

SMILES	Kd (Nluc-H1R)	pKD (Nluc-H1R)	Kb (human H1R; mean ± SEM, four experiments, read-out: pKB (converted))	Kb (human H1R; read-out: KB (converted))
C[C@H](NC(=O)[C@@H](NC(=O)CCN1CCC(Oc2ccccc2Cc2ccccc2)CC1)[C@@H](C)O)C(=O)N[C@@H](Cc1ccc(O)cc1)C(=O)NCCC(=O)N[C@@H](CCCCNC(=O)COc1ccc(/C=C/C2=[N+]3C(=Cc4ccc(-c5cccs5)n4[B-]3(F)F)C=C2)cc1)C(N)=O [Compound 31h, (S)-2-((6S,9S,12S)-16-(4-(2-Benzylphenoxy)piperidin-1-yl)-6-(4-hydroxybenzyl)-12-((R)-1-hydroxyethyl)-9-methyl-5,8,11,14-tetraoxo-4,7,10,13-tetraazahexadecanamido)-6-(2-(4-((E)-2-(5,5-Difluoro-7-(thiophen-2-yl)-5H-5λ^4,6λ^4-dipyrrolo[1,2-c:2’,1’-f][1,3,2]diazaborinin-3-yl)vinyl)phenoxy)acetamido)hexanamide] ({Propanoyl(3-Pip(4-O-2-BnPh))}-TAY[βAla]K(X1)-NH2)	6 nM	8.23 ± 0.17	–	–
CC[C@H](C)[C@H](NC(=O)CCN1CCC(Oc2ccccc2Cc2ccccc2)CC1)C(=O)N[C@@H](CO)C(=O)N[C@@H](CC(N)=O)C(=O)NCCC(=O)N[C@@H](CCCCNC(=O)COc1ccc(/C=C/C2=[N+]3C(=Cc4ccc(-c5cccs5)n4[B-]3(F)F)C=C2)cc1)C(N)=O [Compound 31i, (S)-N1-(3-(((S)-1-Amino-6-(2-(4-((E)-2-(5,5-difluoro-7-(thiophen-2-yl)-5H-5λ^4,6λ^4-dipyrrolo[1,2-c:2’,1’-f][1,3,2]diazaborinin-3-yl)vinyl)phenoxy)acetamido)-1-oxohexan-2-yl)amino)-3-oxopropyl)-2-((S)-2-((2S,3S)-2-(3-(4-(2-benzylphenoxy)piperidin-1-yl)propanamido)-3-methylpentanamido)-3-hydroxypropanamido)succinamide] ({Propanoyl(3-Pip(4-O-2-BnPh))}-ISN[βAla]K(X1)-NH2)	5 nM	8.33 ± 0.09	–	–
CC(C)C[C@H](NC(=O)CCN1CCC(Oc2ccccc2Cc2ccccc2)CC1)C(=O)N[C@@H](CO)C(=O)N[C@@H](CC(N)=O)C(=O)NCCC(=O)N[C@@H](CCCCNC(=O)COc1ccc(/C=C/C2=[N+]3C(=Cc4ccc(-c5cccs5)n4[B-]3(F)F)C=C2)cc1)C(N)=O [Compound 31j, (S)-N1-(3-(((S)-1-Amino-6-(2-(4-((E)-2-(5,5-difluoro-7-(thiophen-2-yl)-5H-5λ^4,6λ^4-dipyrrolo[1,2-c:2’,1’-f][1,3,2]diazaborinin-3-yl)vinyl)phenoxy)acetamido)-1-oxohexan-2-yl)amino)-3-oxopropyl)-2-((S)-2-((S)-2-(3-(4-(2-benzylphenoxy)piperidin-1-yl)propanamido)-4-methylpentanamido)-3-hydroxypropanamido)succinamide] ({Propanoyl(3-Pip(4-O-2-BnPh))}-LSN[βAla]K(X1)-NH2)	6 nM	8.23 ± 0.06	–	–
CC(C)[C@H](NC(=O)CCN1CCC(Oc2ccccc2Cc2ccccc2)CC1)C(=O)N[C@@H](CO)C(=O)N[C@@H](CC(N)=O)C(=O)NCCC(=O)N[C@@H](CCCCNC(=O)CCCCCNC(=O)COc1ccc(/C=C/C2=[N+]3C(=Cc4ccc(-c5cccs5)n4[B-]3(F)F)C=C2)cc1)C(N)=O [Compound 38a, (S)-N^1-(3-(((S)-1-Amino-6-(6-(2-(4-((E)-2-(5,5-difluoro-7-(thiophen-2-yl)-5H-4λ^4,5λ^4-dipyrrolo[1,2-c:2’,1’-f][1,3,2]diazaborinin-3-yl)vinyl)phenoxy)acetamido)hexanamido)-1-oxohexan-2-yl)amino)-3-oxopropyl)-2-((S)-2-((S)-2-(3-(4-(2-benzylphenoxy)piperidin-1-yl)propanamido)-3-methylbutanamido)-3-hydroxypropanamido)succinamide] ({Propanoyl(3-Pip(4-O-2-BnPh))}-VSN[βAla]K([Ahx-X1])-NH2)	18 nM	7.74 ± 0.06	–	–
Cc1cc(C)n2c1C=C1C=CC(/C=C/c3ccc(OCC(=O)NCCCC[C@H](NC(=O)CCNC(=O)[C@H](CC(N)=O)NC(=O)[C@H](CO)NC(=O)[C@@H](NC(=O)CCN4CCC(Oc5ccccc5Cc5ccccc5)CC4)C(C)C)C(N)=O)cc3)=[N+]1[B-]2(F)F [Compound 38b, (S)-N^1-(3-(((S)-1-Amino-6-(2-(4-((E)-2-(5,5-difluoro-7,9-dimethyl-5H-5λ^4,6λ^4-dipyrrolo[1,2-c:2’,1’-f][1,3,2]diazaborinin-3-yl)vinyl)phenoxy)acetamido)-1-oxohexan-2-yl)amino)-3-oxopropyl)-2-((S)-2-((S)-2-(3-(4-(2-benzylphenoxy)piperidin-1-yl)propanamido)-3-methylbutanamido)-3-hydroxypropanamido)succinamide] ({Propanoyl(3-Pip(4-O-2-BnPh))}-VSN[βAla]K(X3)-NH2)	66 nM	7.18 ± 0.11	110 nM	–
CC(C)[C@H](NC(=O)CCN1CCC(Oc2ccccc2Cc2ccccc2)CC1)C(=O)N[C@@H](CO)C(=O)N[C@@H](CC(N)=O)C(=O)NCCC(=O)N[C@@H](CCCCNC(=O)CCC1=[N+]2C(=Cc3ccc(-c4cccs4)n3[B-]2(F)F)C=C1)C(N)=O [Compound 38c, (S)-N^1-(3-(((S)-1-Amino-6-(3-(5,5-difluoro-7-(thiophen-2-yl)-5H-5λ^4,6λ^4-dipyrrolo[1,2-c:2’,1’-f][1,3,2]diazaborinin-3-yl)propanamido)-1-oxohexan-2-yl)amino)-3-oxopropyl)-2-((S)-2-((S)-2-(3-(4-(2-benzylphenoxy)piperidin-1-yl)propanamido)-3-methylbutanamido)-3-hydroxypropanamido)succinamide] ({Propanoyl(3-Pip(4-O-2-BnPh))}-VSN[βAla]K(X2)-NH2)	209 nM	6.68 ± 0.10	–	302 nM
Cc1cc(C)n2c1C=C1C=CC(CCC(=O)NCCCCCC(=O)NCCCC[C@H](NC(=O)CCNC(=O)[C@H](CC(N)=O)NC(=O)[C@H](CO)NC(=O)[C@@H](NC(=O)CCN3CCC(Oc4ccccc4Cc4ccccc4)CC3)C(C)C)C(N)=O)=[N+]1[B-]2(F)F [Compound 38e, (S)-N^1-(3-(((S)-1-Amino-6-(6-(3-(5,5-difluoro-7,9-dimethyl-5H-4λ^4,5λ^4-dipyrrolo[1,2-c:2’,1’-f][1,3,2]diazaborinin-3-yl)propanamido)hexanamido)-1-oxohexan-2-yl)amino)-3-oxopropyl)-2-((S)-2-((S)-2-(3-(4-(2-benzylphenoxy)piperidin-1-yl)propanamido)-3-methylbutanamido)-3-hydroxypropanamido)succinamide] ({Propanoyl(3-Pip(4-O-2-BnPh))}-VSN[βAla]K([Ahx-BODIPY(FL)])-NH2)	5250 nM	5.28 ± 0.06	–	–
C[C@H](NC(=O)[C@H](C)NC(=O)[C@H](Cc1ccccc1)NC(=O)CCN1CCC(Oc2ccccc2Cc2ccccc2)CC1)C(=O)NCCC(=O)N[C@@H](CCCCNC(=O)CCCCCNC(=O)COc1ccc(/C=C/C2=[N+]3C(=Cc4ccc(-c5cccs5)n4[B-]3(F)F)C=C2)cc1)C(N)=O [Compound 39a, N-((5S,8S,11S,18S)-5-Benzyl-1-(4-(2-benzylphenoxy)piperidin-1-yl)-18-carbamoyl-8,11-dimethyl-3,6,9,12,16-pentaoxo-4,7,10,13,17-pentaazadocosan-22-yl)-6-(2-(4-((E)-2-(5,5-difluoro-7-(thiophen-2-yl)-5H-4λ^4,5λ^4-dipyrrolo[1,2-c:2’,1’-f][1,3,2]diazaborinin-3-yl)vinyl)phenoxy)acetamido)hexanamide] ({Propanoyl(3-Pip(4-O-2-BnPh))}-FAA[βAla]K([Ahx-X1])-NH2)	10 nM	7.98 ± 0.01	–	–
Cc1cc(C)n2c1C=C1C=CC(CCC(=O)NCCCCCC(=O)NCCCC[C@H](NC(=O)CCNC(=O)[C@H](C)NC(=O)[C@H](C)NC(=O)[C@H](Cc3ccccc3)NC(=O)CCN3CCC(Oc4ccccc4Cc4ccccc4)CC3)C(N)=O)=[N+]1[B-]2(F)F [Compound 39e, N-((5S,8S,11S,18S)-5-Benzyl-1-(4-(2-benzylphenoxy)piperidin-1-yl)-18-carbamoyl-8,11-dimethyl-3,6,9,12,16-pentaoxo-4,7,10,13,17-pentaazadocosan-22-yl)-6-(3-(5,5-difluoro-7,9-dimethyl-5H-4λ^4,5λ^4-dipyrrolo[1,2-c:2’,1’-f][1,3,2]diazaborinin-3-yl)propanamido)hexanamide] ({Propanoyl(3-Pip(4-O-2-BnPh))}-FAA[βAla]K([Ahx-BODIPY(FL)])-NH2)	2690 nM	5.57 ± 0.05	–	–
